Data: US10709783B2, “Neutron capture therapy system for eliminating amyloid β-protein” (NEUBORON MEDTECH LTD., priority 2015, dated 2020)
Where two headings read alike, the source gives them in different places.

Columns and labels:
[1] = test system: amyloid β-protein deposition plaques; assay: Micro-PET scan of brain uptake of ^11C-labelled compound in SAMP8 model mice and control mice; format: in vivo
Protocol: (§1) SAMP8 (senescence accelerated mouse prone 8) mice are the most common animal model of AD (Alzheimer's disease), in its brain there are a large number of amyloid deposition plaque. In this example, SAMP8 mice were used as model mice, and the normal mice were used as the control mice. Both the model mice and the control mice were 10 months old. The two mice were injected with 6-borono-2-(4-methylaminophenyl)benzothiazole containing ^11C labeling, and the Micro-PET scan is used to study whether 6-borono-2-(4-methylaminophenyl)benzothiazole and amyloid β-protein have specific binding properties. Model mice and control mice weighing 31.5±0.3 g were selected, 31.0±0.6 μCi of ^11C labelled 6-borono-2-(4-methylaminophenyl)benzothiazole were injected thereto, and Micro-PET of Model INVEON from Siemens were used for scan, where the scanning window was 350-650 KeV.
(§2) It is well known to those skilled in the art that the major cause of Alzheimer's disease is that the amyloid β-protein deposition plaques accumulate in the cerebral cortex and hippocampus of the brain. In this example, Micro-PET scanned and compared the brains of the model and control mice using PMOD software. And the absorption of radioactive 6-borono-2-(4-methylaminophenyl)benzothiazole in the cerebral cortex and hippocampus of SAMP8 model mice and control mice was determined, to further illustrate that the compound is capable of specifically binding to amyloid β-protein deposition plaques.

[2] = as above; format: in vivo; settings: mouse, 31 μCi; for tissue uptake at 5 min: 5 min after injection; for tissue uptake at 15 min: 15 min after injection; for tissue uptake at 25 min: 25 min after injection; for tissue uptake at 35 min: 35 min after injection
Protocol: as §1, §2

[3] = cerebral cortex, other: injected (kind of injection not stated), SAMP8 model mice, read-out: Cerebral cortex uptake of radiopharmaceuticals, Model mice
[4] = cerebral cortex, other: injected (kind of injection not stated), normal control mice, read-out: Cerebral cortex uptake of radiopharmaceuticals, Control mice
[5] = hippocampus, other: injection (kind of injection not stated), SAMP8 model mice, read-out: hippocampus uptake of radiopharmaceuticals, Model mice
[6] = hippocampus, other: injection (kind of injection not stated), normal control mice, read-out: hippocampus uptake of radiopharmaceuticals, Control mice

With `CNc1ccc(-c2nc3ccc(B(O)O)cc3s2)cc1` [6-borono-2-(4-methylaminophenyl)benzothiazole] the “Cerebral cortex uptake Ratio (model mice/control mice)” value ([1]; 5 min after injection) was 1.9, the “hippocampus uptake Ratio (model mice/control mice)” value ([1]; 5 min after injection) was 1.9 and the “Cerebral cortex uptake Ratio (model mice/control mice)” value ([1]; 15 min after injection) was 1.9. For the same compound, the “hippocampus uptake Ratio (model mice/control mice)” value ([1]; 15 min after injection) was 2.3, the “Cerebral cortex uptake Ratio (model mice/control mice)” value ([1]; 25 min after injection) was 2.4 and the “hippocampus uptake Ratio (model mice/control mice)” value ([1]; 25 min after injection) was 3.2. For the same compound, the “brain radiopharmaceutical absorption in PET image (FIG. 4), SAMP8 model mouse relative to control mice” value ([1]; 30 min after injection) was “accumulated a large amount of radiopharmaceuticals”, the “Cerebral cortex uptake Ratio (model mice/control mice)” value ([1]; 35 min after injection) was 2.7 and the “hippocampus uptake Ratio (model mice/control mice)” value ([1]; 35 min after injection) was 3.2. The tissue uptake at 5 min [2, 3] was 3.03 %ID/g, the tissue uptake at 15 min [2, 3] was 2.88 %ID/g and the tissue uptake at 25 min [2, 3] was 2.79 %ID/g. For the same compound, the tissue uptake at 35 min [2, 3] was 2.68 %ID/g, the tissue uptake at 5 min [2, 4] was 1.61 %ID/g and the tissue uptake at 15 min [2, 4] was 1.48 %ID/g. For the same compound, the tissue uptake at 25 min [2, 4] was 1.17 %ID/g, the tissue uptake at 35 min [2, 4] was 0.99 %ID/g and the tissue uptake at 5 min [2, 5] was 3.44 %ID/g. For the same compound, the tissue uptake at 15 min [2, 5] was 3.5 %ID/g, the tissue uptake at 25 min [2, 5] was 3.45 %ID/g and the tissue uptake at 35 min [2, 5] was 3.27 %ID/g. For the same compound, the tissue uptake at 5 min [2, 6] was 1.8 %ID/g, the tissue uptake at 15 min [2, 6] was 1.49 %ID/g and the tissue uptake at 25 min [2, 6] was 1.09 %ID/g. The tissue uptake at 35 min [2, 6] was 1.01 %ID/g.
